Test results reported in patent US10308663B2, “Inhibitors of PTP4A3 for the treatment of cancer” (University of Virginia Patent Foundation, priority 2015, dated 2019).

Experiments:
[1] = tested on: OVCAR-4; test: Ovarian cancer cell drug susceptibility (Alamar blue), OVCAR-4; type: cell-based, human; settings: 44 h + 4 h Alamar blue
[2] = tested on: SKOV3; test: Ovarian cancer cell drug susceptibility (Alamar blue), SKOV3; type: cell-based, human; settings: 44 h + 4 h Alamar blue
[3] = tested on: A2780CP20 (Cisplatin resistant); test: Ovarian cancer cell drug susceptibility (Alamar blue), A2780CP20; type: cell-based, human; settings: 44 h + 4 h Alamar blue
[4] = biological target: SHP2 cat (Homo sapiens (Human), UniProt Q06124); settings: DiFMUP as a substrate; reported by Hoeger et al.; cited from earlier work
[5] = biological target: HCP cat (Homo sapiens (Human), UniProt P29350); settings: DiFMUP as a substrate; reported by Hoeger et al.; cited from earlier work
[6] = biological target: LARD1 (Homo sapiens (Human), UniProt P10586); settings: DiFMUP as a substrate; reported by Hoeger et al.; cited from earlier work
[7] = biological target: PTP-Tcell (Homo sapiens (Human), UniProt P17706); settings: DiFMUP as a substrate; reported by Hoeger et al.; cited from earlier work
[8] = biological target: PTPb cat (Homo sapiens (Human), UniProt P23467); settings: DiFMUP as a substrate; reported by Hoeger et al.; cited from earlier work
[9] = biological target: PTP1B (Homo sapiens (Human), UniProt P18031); settings: DiFMUP as a substrate; reported by Hoeger et al.; cited from earlier work
[10] = biological target: PTPeD1 (Homo sapiens (Human), UniProt P23469); settings: DiFMUP as a substrate; reported by Hoeger et al.; cited from earlier work
[11] = biological target: CD45 (Homo sapiens (Human), UniProt P08575); settings: DiFMUP as a substrate; reported by Hoeger et al.; cited from earlier work
[12] = Spontaneous conversion of 5 to 6 under assay conditions; type: physicochemical; settings: 90 min, in the presence or absence of DTT
[13] = tested on: A2780CW (Cisplatin sensitive); test: Ovarian cancer cell drug susceptibility (Alamar blue), A2780CW; type: cell-based, human; settings: 44 h + 4 h Alamar blue
[14] = tested on: MsTuWT cells (Ptp4a3 wildtype); test: Cell adhesion assay (xCELLigence), MsTuWT; type: cell-based, mouse; settings: xCELLigence Cell Index
[15] = biological target: PTPgD1 (Homo sapiens (Human), UniProt P23470); settings: DiFMUP as a substrate; reported by Hoeger et al.; cited from earlier work
[16] = biological target: PTPaD1 (Homo sapiens (Human), UniProt P18433); settings: DiFMUP as a substrate; reported by Hoeger et al.; cited from earlier work
PTPaD1, sequence (P18433 241-501): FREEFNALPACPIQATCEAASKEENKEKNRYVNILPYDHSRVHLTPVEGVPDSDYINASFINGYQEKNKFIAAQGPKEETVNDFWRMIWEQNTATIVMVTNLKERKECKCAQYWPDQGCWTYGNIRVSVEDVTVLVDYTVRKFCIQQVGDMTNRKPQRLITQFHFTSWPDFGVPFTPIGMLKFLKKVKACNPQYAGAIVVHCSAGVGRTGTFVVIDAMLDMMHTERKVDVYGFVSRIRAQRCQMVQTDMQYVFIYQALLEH

SHP2 cat, sequence (Q06124 247-517): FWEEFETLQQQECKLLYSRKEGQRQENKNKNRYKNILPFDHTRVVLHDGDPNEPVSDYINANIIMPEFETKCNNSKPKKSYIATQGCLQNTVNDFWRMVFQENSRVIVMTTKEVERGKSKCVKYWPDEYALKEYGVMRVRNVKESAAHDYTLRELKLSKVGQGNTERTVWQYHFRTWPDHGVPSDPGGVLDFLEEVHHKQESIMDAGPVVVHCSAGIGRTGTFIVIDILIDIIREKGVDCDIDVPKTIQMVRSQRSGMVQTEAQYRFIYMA
HCP cat, sequence (P29350 244-515): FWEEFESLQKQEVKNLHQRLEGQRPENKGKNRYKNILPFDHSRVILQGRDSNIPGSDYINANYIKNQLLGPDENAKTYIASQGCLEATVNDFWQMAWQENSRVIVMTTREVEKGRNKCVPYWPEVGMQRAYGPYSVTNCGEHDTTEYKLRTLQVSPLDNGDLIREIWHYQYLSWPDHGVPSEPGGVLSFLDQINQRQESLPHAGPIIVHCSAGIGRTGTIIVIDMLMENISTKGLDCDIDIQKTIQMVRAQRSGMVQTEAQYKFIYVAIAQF
PTP1B, sequence (P18031 whole entry, species assumed): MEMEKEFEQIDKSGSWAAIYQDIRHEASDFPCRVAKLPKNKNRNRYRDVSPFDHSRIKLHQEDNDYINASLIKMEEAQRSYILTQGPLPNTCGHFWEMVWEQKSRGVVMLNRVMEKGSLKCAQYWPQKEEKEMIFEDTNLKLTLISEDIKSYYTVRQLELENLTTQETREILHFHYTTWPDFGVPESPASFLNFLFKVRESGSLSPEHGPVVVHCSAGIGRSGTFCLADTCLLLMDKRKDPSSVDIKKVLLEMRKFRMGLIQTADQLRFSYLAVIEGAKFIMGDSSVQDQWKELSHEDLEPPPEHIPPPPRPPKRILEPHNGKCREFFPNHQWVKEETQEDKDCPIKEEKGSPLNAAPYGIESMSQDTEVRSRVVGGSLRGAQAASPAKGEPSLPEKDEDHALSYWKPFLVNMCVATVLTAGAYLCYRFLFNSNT
LARD1, sequence (P10586 1352-1607): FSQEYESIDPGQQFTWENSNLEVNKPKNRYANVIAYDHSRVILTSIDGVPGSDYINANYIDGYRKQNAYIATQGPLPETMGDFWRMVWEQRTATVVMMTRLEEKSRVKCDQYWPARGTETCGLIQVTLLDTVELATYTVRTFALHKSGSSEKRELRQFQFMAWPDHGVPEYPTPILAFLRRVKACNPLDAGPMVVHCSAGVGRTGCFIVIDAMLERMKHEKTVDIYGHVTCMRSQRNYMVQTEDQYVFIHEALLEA
PTPeD1, sequence (P23469 135-394): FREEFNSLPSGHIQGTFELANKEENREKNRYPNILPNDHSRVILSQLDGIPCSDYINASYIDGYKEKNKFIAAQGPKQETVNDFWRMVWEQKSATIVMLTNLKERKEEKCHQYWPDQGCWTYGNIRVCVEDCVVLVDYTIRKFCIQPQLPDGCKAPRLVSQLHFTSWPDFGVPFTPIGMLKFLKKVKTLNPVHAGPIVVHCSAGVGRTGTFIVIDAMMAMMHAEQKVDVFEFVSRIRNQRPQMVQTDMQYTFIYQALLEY
CD45, sequence (P08575 26-1306, species assumed): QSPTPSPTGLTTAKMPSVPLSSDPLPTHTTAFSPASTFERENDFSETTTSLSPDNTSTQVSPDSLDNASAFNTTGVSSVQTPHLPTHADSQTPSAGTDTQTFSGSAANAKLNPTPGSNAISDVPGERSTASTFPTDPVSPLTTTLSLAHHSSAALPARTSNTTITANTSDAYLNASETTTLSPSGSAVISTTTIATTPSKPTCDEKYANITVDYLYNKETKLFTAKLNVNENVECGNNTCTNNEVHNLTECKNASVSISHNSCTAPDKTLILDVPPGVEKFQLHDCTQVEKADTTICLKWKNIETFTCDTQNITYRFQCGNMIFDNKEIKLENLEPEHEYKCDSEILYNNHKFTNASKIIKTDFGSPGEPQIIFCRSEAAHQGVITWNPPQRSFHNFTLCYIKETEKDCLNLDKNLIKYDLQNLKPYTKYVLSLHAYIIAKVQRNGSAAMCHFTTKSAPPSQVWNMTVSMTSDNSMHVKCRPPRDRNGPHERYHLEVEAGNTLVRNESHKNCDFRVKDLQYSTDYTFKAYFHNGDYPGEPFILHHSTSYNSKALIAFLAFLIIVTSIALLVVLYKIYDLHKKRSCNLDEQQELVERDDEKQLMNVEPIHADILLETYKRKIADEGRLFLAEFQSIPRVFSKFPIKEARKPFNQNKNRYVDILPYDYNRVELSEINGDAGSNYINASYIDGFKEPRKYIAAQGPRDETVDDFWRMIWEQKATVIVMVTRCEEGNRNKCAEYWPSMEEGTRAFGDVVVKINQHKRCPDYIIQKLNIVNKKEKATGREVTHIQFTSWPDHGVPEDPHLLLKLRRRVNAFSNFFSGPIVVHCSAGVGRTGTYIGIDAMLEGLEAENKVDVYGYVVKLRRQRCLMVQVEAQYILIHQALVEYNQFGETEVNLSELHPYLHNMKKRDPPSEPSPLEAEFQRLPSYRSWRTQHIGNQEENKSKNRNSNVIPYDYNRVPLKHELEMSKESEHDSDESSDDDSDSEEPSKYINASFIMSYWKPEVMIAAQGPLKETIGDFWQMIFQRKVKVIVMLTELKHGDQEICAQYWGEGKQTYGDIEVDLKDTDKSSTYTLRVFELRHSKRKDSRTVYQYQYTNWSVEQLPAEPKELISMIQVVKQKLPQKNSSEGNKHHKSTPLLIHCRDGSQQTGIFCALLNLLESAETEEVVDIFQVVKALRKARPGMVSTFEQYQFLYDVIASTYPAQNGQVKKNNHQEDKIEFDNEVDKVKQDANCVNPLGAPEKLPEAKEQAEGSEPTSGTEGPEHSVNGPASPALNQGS
PTP-Tcell, sequence (P17706 whole entry): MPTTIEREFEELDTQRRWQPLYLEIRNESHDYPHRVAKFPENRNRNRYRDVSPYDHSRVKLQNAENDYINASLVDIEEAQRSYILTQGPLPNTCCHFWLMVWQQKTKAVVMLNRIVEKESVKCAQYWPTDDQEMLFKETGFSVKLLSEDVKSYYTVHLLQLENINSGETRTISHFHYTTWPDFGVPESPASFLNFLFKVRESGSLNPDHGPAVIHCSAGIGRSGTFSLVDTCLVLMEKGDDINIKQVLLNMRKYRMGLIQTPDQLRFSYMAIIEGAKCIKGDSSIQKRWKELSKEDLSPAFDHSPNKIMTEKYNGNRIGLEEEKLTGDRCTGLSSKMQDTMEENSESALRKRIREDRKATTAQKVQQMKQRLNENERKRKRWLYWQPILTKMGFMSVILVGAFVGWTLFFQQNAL
PTPb cat, sequence (P23467 1703-1963): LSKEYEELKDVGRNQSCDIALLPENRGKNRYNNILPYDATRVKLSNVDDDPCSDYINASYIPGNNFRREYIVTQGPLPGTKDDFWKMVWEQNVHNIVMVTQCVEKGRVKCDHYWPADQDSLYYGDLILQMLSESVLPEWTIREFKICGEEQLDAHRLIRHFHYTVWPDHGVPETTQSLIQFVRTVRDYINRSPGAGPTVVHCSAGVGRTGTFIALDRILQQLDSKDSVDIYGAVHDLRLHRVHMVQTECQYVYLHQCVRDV
PTPgD1, sequence (P23470 848-1119): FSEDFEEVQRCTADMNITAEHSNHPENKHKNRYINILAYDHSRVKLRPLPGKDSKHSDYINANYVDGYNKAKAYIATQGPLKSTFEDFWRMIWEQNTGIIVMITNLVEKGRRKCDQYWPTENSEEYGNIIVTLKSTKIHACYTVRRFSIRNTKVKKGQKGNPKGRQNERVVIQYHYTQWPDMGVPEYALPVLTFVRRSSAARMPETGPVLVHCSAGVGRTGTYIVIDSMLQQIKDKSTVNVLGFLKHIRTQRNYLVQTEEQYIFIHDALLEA

| EC50 ([1]; Homo sapiens, OVCAR-4) | EC50 ([2]; Homo sapiens, SK-OV-3) | EC50 ([3]; Homo sapiens) | EC50 ([13]; Homo sapiens) | SMILES | IC50 [4] | IC50 [5] | IC50 [6] | IC50 [7] | IC50 [8] | IC50 [9] | IC50 [10] | IC50 [11] | spontaneous conversion of 5 to 6 [12] | MsTuWT adherence [14] | IC50 [15] | IC50 [16] | EC50 [1] | EC50 [2] | EC50 [3] | EC50 [13] |
| --- | --- | --- | --- | --- | --- | --- | --- | --- | --- | --- | --- | --- | --- | --- | --- | --- | --- | --- | --- | --- |
|  |  |  |  | N.N.[Cl][Pt][Cl] [Cisplatin] |  |  |  |  |  |  |  |  |  |  |  |  | 30.3 ± 4.4 µM | > 100 µM | > 100 µM | 3.7 ± 1.8 µM |
| 48.5 ± 7.9 µM | 48.3 ± 9.1 µM | 17.3 ± 2 µM | 26.4 ± 1 µM | O=C1NC(=S)S/C1=C/c1cc(Br)ccc1OCc1ccccc1Br [BR-1] |  |  |  |  |  |  |  |  |  |  |  |  |  |  |  |  |
| > 50 µM | > 50 µM | > 50 µM | > 50 µM | O=c1[nH]c(=O)c2cc(-c3ccccc3)sc2[nH]1 [JMS-557-038] |  |  |  |  |  |  |  |  |  |  |  |  |  |  |  |  |

| SMILES | EC50 ([1]; Homo sapiens, OVCAR-4) | EC50 ([2]; Homo sapiens, SK-OV-3) | EC50 ([3]; Homo sapiens) | EC50 ([13]; Homo sapiens) | IC50 [4] | IC50 [5] | IC50 [6] | IC50 [7] | IC50 [8] | IC50 [9] | IC50 [10] | IC50 [11] | spontaneous conversion of 5 to 6 [12] | MsTuWT adherence [14] | IC50 [15] | IC50 [16] | EC50 [1] | EC50 [2] | EC50 [3] | EC50 [13] |
| --- | --- | --- | --- | --- | --- | --- | --- | --- | --- | --- | --- | --- | --- | --- | --- | --- | --- | --- | --- | --- |
| Nc1c[nH]c(=O)c2cc(-c3ccccc3)sc12 [Thienopyridone (5), 7-amino-2-phenylthieno[3,2-c]pyridin-4(5H)-one] | 15.5 ± 2.4 µM | 28.8 ± 2.2 µM | 13.1 ± 6 µM | 4.5 ± 0.6 µM | > 100 µM | 71 µM | > 100 µM | > 100 µM | 67 µM | > 100 µM | > 100 µM | > 100 µM | not detect quantifiable (>5%) spontaneous conversion | inhibited | > 100 µM | > 100 µM |  |  |  |  |
